Measured values as given in patent US8148391B2 (Cephalon, Inc., priority 2006, dated 2012).
Like-named read-outs stand apart in the source and are kept apart here. One block for each molecule: values may come before it.

Columns and labels:
[1] = target: T1, baculovirus-expressed ALK (Homo sapiens, UniProt Q9UM73); experiment: ALK Kinase Assay (ELISA-type, time-resolved fluorescence); assay type: biochemical
T1 construct: host or cells: baculovirus expression system
Summary of the method: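 Plates coated with phospholipase C-γ substrate (10 μg/mL in TBS); reaction started with 30 ng/ml ALK and run 15 min at 37° C. Phosphorylated substrate detected with Eu-N1-labeled PT66 antibody. IC50 from sigmoidal variable-slope fit of percent inhibition vs log concentration.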

[2] = target: T2, c-Met (cytoplasmic domain) (Homo sapiens, UniProt P08581); experiment: c-Met Kinase Assay (same methods as for ALK, with modifications); assay type: biochemical
T2 construct: 10 ng/mL c-Met (cytoplasmic domain, Invitrogen Corporation #PV3143); purchased Invitrogen Corporation PV3143
T2 sequence (P08581 956-1390 limits assumed): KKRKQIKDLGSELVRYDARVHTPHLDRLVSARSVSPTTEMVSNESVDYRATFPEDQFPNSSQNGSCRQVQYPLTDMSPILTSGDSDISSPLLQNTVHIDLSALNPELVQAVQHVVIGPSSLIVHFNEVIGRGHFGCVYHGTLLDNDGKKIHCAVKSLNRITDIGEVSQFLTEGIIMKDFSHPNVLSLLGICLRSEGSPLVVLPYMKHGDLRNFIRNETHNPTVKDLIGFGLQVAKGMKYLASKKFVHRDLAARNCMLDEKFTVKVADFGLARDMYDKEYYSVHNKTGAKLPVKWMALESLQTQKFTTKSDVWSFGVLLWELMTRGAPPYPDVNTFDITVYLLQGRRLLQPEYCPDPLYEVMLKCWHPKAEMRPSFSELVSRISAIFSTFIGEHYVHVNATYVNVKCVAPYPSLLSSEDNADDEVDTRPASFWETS
Summary of the method: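 Plates were coated with phospholipase C-γ substrate (10 μg/mL) in TBS, and the reaction was started with 10 ng/mL c-Met cytoplasmic domain and run 15 min at 37 °C. Phosphoproduct was detected with Eu-N1-labelled PT66 antibody. IC50 came from a variable-slope sigmoidal fit of percent inhibition vs log concentration.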

[3] = ALK kinase inhibition, 1 μM ATP (Km level), read-out: ALK Activity
[4] = c-Met kinase inhibition, 1 μM ATP (Km level), read-out: cMet Activity
[5] = 1 μM ATP (Km level), 30 ng/ml ALK, 37° C., 15 minutes, read-out: ALK Activity (ALK kinase inhibition, IC50 class)
[6] = 1 μM ATP (Km level), 10 ng/mL c-Met, read-out: cMet Activity (c-Met kinase inhibition, IC50 class)
[7] = 1 μM ATP (Km level), read-out: ALK Activity (ALK Kinase Inhibition, IC50)
[8] = 1 μM ATP (Km level), read-out: cMet Activity (c-Met Kinase Inhibition, IC50)
[9] = ALK kinase inhibition, 1 μM ATP, read-out: ALK Activity
[10] = c-Met kinase inhibition, 1 μM ATP, read-out: cMet Activity

T1 sequence (Q9UM73 19-1620): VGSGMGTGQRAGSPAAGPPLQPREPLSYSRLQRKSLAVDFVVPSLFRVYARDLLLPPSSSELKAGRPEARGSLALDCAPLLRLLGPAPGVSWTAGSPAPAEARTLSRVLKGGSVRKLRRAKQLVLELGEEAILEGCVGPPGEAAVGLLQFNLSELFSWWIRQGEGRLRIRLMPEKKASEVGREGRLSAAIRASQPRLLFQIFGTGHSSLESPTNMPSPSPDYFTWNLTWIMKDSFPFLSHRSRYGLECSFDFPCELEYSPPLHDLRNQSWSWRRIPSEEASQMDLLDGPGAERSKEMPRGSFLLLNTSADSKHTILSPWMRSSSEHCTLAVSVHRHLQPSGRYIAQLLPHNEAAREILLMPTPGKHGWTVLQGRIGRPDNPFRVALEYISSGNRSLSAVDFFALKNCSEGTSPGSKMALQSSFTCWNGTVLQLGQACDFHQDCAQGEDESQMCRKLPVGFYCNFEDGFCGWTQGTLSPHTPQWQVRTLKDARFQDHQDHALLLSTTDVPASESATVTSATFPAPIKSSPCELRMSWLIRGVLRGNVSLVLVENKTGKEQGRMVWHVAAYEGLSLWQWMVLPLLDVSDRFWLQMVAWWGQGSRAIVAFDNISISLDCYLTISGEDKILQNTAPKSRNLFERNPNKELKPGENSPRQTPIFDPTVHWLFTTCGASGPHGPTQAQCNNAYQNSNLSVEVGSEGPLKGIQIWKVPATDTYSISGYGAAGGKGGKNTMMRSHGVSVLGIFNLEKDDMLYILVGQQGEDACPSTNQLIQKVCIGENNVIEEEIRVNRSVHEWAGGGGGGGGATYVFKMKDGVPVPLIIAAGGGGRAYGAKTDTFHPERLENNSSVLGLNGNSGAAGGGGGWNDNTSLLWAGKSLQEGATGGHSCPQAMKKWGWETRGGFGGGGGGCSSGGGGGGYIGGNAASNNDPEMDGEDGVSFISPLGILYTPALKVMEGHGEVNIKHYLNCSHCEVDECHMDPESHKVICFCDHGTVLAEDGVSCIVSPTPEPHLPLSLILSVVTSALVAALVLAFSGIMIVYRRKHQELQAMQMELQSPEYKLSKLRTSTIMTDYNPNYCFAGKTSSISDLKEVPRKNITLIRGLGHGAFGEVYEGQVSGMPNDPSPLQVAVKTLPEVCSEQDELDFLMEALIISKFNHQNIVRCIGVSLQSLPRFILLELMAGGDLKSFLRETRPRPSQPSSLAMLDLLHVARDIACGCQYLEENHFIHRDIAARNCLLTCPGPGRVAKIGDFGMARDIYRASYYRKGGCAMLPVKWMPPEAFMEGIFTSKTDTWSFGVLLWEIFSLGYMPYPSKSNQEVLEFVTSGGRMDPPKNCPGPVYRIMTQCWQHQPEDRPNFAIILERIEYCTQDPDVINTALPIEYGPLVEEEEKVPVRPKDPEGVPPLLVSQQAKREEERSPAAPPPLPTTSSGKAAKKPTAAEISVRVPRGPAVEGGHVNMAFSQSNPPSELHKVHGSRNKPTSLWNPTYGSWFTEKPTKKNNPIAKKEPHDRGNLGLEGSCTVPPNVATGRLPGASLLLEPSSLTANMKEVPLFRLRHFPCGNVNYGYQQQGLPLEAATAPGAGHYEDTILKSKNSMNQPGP

Molecule: CNC(=O)c1ccccc1Nc1nc(Nc2ccc3c(c2)CCC(F)(F)CC3)ncc1Cl [Example 180, 2-[5-Chloro-2-(7,7-difluoro-6,7,8,9-tetrahydro-5H-benzocyclohepten-2-ylamino)-pyrimidin-4-ylamino]-N-methyl-benzamide]
IC50 [1, 3]: < 100 nM
IC50 [2, 4]: 100 to 1000 nM

Molecule: COCCN1CCc2ccc(Nc3ncc(Cl)c(Nc4c(C)cccc4OCC#N)n3)cc2CC1 [Example 1245, (2-{5-Chloro-2-[3-(2-methoxy-ethyl)-2,3,4,5-tetrahydro-1H-3-benzazepin-7-ylamino]-pyrimidin-4-ylamino}-3-methyl-phenoxy)-acetonitrile]
IC50 [1, 5]: 100 to 1000 nM
IC50 [2, 6]: 100 to 1000 nM

Molecule: CCN1CC(=O)N(C)c2cc(Nc3ncc(Cl)c(N[C@H]4[C@@H](C(N)=O)[C@@H]5C=C[C@H]4C5)n3)c(OC)cc2C1 [Example 741]
IC50 [1, 7]: < 100 nM
IC50 [2, 8]: > 10000 nM

Molecule: COc1cc(N2CCOCC2)ccc1Nc1nc(Nc2ccc3c(c2)CCCCN3C)ncc1Cl [Example 105, 5-Chloro-N*4*-(2-methoxy-4-morpholin-4-yl-phenyl)-N*2*-(1-methyl-2,3,4,5-tetrahydro-1H-benzo[b]azepin-7-yl)-pyrimidine-2,4-diamine]
IC50 [1, 3]: < 100 nM
IC50 [2, 4]: > 10000 nM

Molecule: CCN(CCO)Cc1cc(Nc2nc(Nc3cc4c(cc3OC)CCN(CC(=O)N(C)C)CC4)ncc2Cl)ccc1F [Example 735, 2-{7-[5-Chloro-4-(3-{[ethyl-(2-hydroxy-ethyl)-amino]-methyl}-4-fluoro-phenylamino)-pyrimidin-2-ylamino]-8-methoxy-1,2,4,5-tetrahydro-benzo[d]azepin-3-yl}-N,N-dimethyl-acetamide]
IC50 [1, 7]: < 100 nM
IC50 [2, 8]: > 10000 nM

Molecule: CC1(C)CCCN(CCN2CCCC2)c2cc(Nc3ncc(Cl)c(N[C@H]4[C@@H](C(N)=O)[C@@H]5C=C[C@H]4C5)n3)ccc21 [Example 1606, (1S,2S,3R,4R)-3-{5-Chloro-2-[5,5-dimethyl-1-(2-pyrrolidin-1-yl-ethyl)-2,3,4,5-tetrahydro-1H-benzo[b]azepin-8-ylamino]-pyrimidin-4-ylamino}-bicyclo[2.2.1]hept-5-ene-2-carboxylic acid amide]
IC50 [1, 9]: < 100 nM
IC50 [2, 10]: 1000 to 10000 nM

Molecule: COCCN1CC(=O)Nc2cc(Nc3ncc(Cl)c(N[C@H]4[C@@H](C(N)=O)[C@@H]5C=C[C@H]4C5)n3)c(OC)cc2C1 [Example 1665, (1S,2S,3R,4R)-3-{5-Chloro-2-[7-methoxy-4-(2-methoxy-ethyl)-2-oxo-2,3,4,5-tetrahydro-1H-benzo[e][1,4]diazepin-8-ylamino]-pyrimidin-4-ylamino}-bicyclo[2.2.1]hept-5-ene-2-carboxylic acid amide]
IC50 [1, 9]: < 100 nM
IC50 [2, 10]: > 10000 nM

Molecule: CCN1CCc2ccc(Nc3ncc(Cl)c(NCC(C)NS(C)(=O)=O)n3)cc2CC1 (stereo not shown) [Example 300, N-{2-[5-Chloro-2-(3-ethyl-2,3,4,5-tetrahydro-1H-benzo[d]azepin-7-ylamino)-pyrimidin-4-ylamino]-1-methyl-ethyl}-methanesulfonamide]
IC50 [1, 3]: 100 to 1000 nM
IC50 [2, 4]: 1000 to 10000 nM

Molecule: CC(=O)N1CCC(=O)NCc2cc(Nc3ncc(Cl)c(Nc4c(C)cccc4OCC#N)n3)ccc21 [Example 1246, {2-[2-(1-Acetyl-4-oxo-1,2,3,4,5,6-hexahydro-benzo[b][1,5]diazocin-8-ylamino)-5-chloro-pyrimidin-4-ylamino]-3-methyl-phenoxy}-acetonitrile]
IC50 [1, 5]: 100 to 1000 nM
IC50 [2, 6]: < 100 nM

Molecule: COCCN1CCc2ccc(Nc3ncc(Cl)c(Nc4ccccc4C(=O)NC4CC4)n3)cc2CC1 [Example 344, 2-{5-Chloro-2-[3-(2-methoxy-ethyl)-2,3,4,5-tetrahydro-1H-benzo[d]azepin-7-ylamino]-pyrimidin-4-ylamino}-N-cyclopropyl-benzamide]
IC50 [1, 3]: < 100 nM
IC50 [2, 4]: 100 to 1000 nM

Molecule: CNC(=O)c1scc(C)c1Nc1nc(Nc2ccc3c(c2)CCN(CCOC)CC3)ncc1Cl [Example 1362, 3-{5-Chloro-2-[3-(2-methoxy-ethyl)-2,3,4,5-tetrahydro-1H-benzo[d]azepin-7-ylamino]-pyrimidin-4-ylamino}-4-methyl-thiophene-2-carboxylic acid methylamide]
IC50 [1, 5]: 100 to 1000 nM
IC50 [2, 6]: < 100 nM

Molecule: COc1c(Nc2ncc(Cl)c(Nc3ccccc3-n3cccn3)n2)ccc2c1CCC(NCC(F)F)CC2 (stereo not shown) [Example 689, 5-Chloro-N*2*-[7-(2,2-difluoro-ethylamino)-1-methoxy-6,7,8,9-tetrahydro-5H-benzocyclohepten-2-yl]-N*4*-(2-pyrazol-1-yl-phenyl)-pyrimidine-2,4-diamine]
IC50 [1, 7]: < 100 nM
IC50 [2, 8]: > 10000 nM

Molecule: CN1CCN(C2CCN(C3CCc4ccc(Nc5ncc(Cl)c(Nc6c(F)cccc6OCC#N)n5)cc4CC3)CC2)CC1 (stereo not shown) [Example 1483, [2-(5-Chloro-2-{7-[4-(4-methyl-piperazin-1-yl)-piperidin-1-yl]-6,7,8,9-tetrahydro-5H-benzocyclohepten-2-ylamino}-pyrimidin-4-ylamino)-3-fluoro-phenoxy]-acetonitrile]
IC50 [1, 9]: < 100 nM
IC50 [2, 10]: < 100 nM

Molecule: COCC(COC)N1CCc2cc(Nc3ncc(Cl)c(Nc4ccccc4S(=O)(=O)C(C)C)n3)c(OC)cc2CC1 [Example 817, 5-Chloro-N*2*-[8-methoxy-3-(2-methoxy-1-methoxymethyl-ethyl)-2,3,4,5-tetrahydro-1H-benzo[d]azepin-7-yl]-N*4*-[2-(propane-2-sulfonyl)-phenyl]-pyrimidine-2,4-diamine]
IC50 [1, 7]: < 100 nM
IC50 [2, 8]: > 10000 nM

Molecule: CCN(CCO)Cc1cc(Nc2nc(Nc3ccc4c(c3OC)CCC(N3CCOCC3)CC4)ncc2Cl)ccc1F (stereo not shown) [Example 740, 2-([5-[5-Chloro-2-(1-methoxy-7-morpholin-4-yl-6,7,8,9-tetrahydro-5H-benzocyclohepten-2-ylamino)-pyrimidin-4-ylamino]-2-fluoro-benzyl}-ethylamino)-ethanol]
IC50 [1, 7]: < 100 nM
IC50 [2, 8]: > 10000 nM

Next, values leading:

IC50 [1, 3]: < 100 nM
IC50 [2, 4]: 100 to 1000 nM
Molecule: CCN1CCc2ccc(Nc3ncc(Cl)c(N[C@@H]4CCCC[C@H]4NS(C)(=O)=O)n3)cc2CC1 [Example 441, N-{(1R,2R)-2-[5-Chloro-2-(3-ethyl-2,3,4,5-tetrahydro-1H-benzo[d]azepin-7-ylamino)-pyrimidin-4-ylamino]-cyclohexyl}methanesulfonamide]

IC50 [1, 5]: < 100 nM
IC50 [2, 6]: > 10000 nM
Molecule: COc1cc2c(cc1Nc1ncc(Cl)c(Nc3ccccc3S(=O)(=O)N(C)C)n1)CCN(CCCN1CCOCC1)C(=O)C2 [Example 1183, 2-{5-Chloro-2-[8-methoxy-3-(3-morpholin-4-yl-propyl)-2-oxo-2,3,4,5-tetrahydro-1H-benzo[d]azepin-7-ylamino]-pyrimidin-4-ylamino}-N,N-dimethyl-benzenesulfonamide]

IC50 [1, 9]: < 100 nM
IC50 [2, 10]: < 100 nM
Molecule: CCN1C(=O)OCCc2cc(Nc3ncc(Cl)c(Nc4ccccc4C(=O)NC)n3)ccc21 [Example 1745, 2-[5-chloro-2-(5-ethyl-6-oxo-5,6,8,9-tetrahydro-7-oxa-5-aza-benzocyclohepten-2-ylamino)-pyrimidin-4-ylamino]-N-methyl-benzamide]

IC50 [1, 3]: < 100 nM
IC50 [2, 4]: < 100 nM
Molecule: CCN1CCc2ccc(Nc3ncc(C(F)(F)F)c(Nc4ccccc4C(=O)NC)n3)cc2CC1 [Example 195, 2-[2-(3-Ethyl-2,3,4,5-tetrahydro-1H-benzo[d]azepin-7-ylamino)-5-trifluoromethyl-pyrimidin-4-ylamino]-N-methyl-benzamide]

IC50 [1, 7]: 1000 to 10000 nM
IC50 [2, 8]: > 10000 nM
Molecule: COc1cc2c(cc1Nc1ncc(Cl)c(Nc3c(OC)ccc4c3CN(S(C)(=O)=O)CC(=O)N4)n1)CCN(CC(=O)N(C)C)CC2 [Example 751, 2-{7-[5-Chloro-4-(4-methanesulfonyl-7-methoxy-2-oxo-2,3,4,5-tetrahydro-1H-benzo[e][1,4]diazepin-6-ylamino)-pyrimidin-2-ylamino]-8-methoxy-1,2,4,5-tetrahydro-benzo[d]azepin-3-yl}-N,Ndimethyl-acetamide]

IC50 [1, 9]: < 100 nM
IC50 [2, 10]: 100 to 1000 nM
Molecule: CNC(=O)c1cccc(F)c1Nc1nc(Nc2ccc3c(c2)N(CCN2CCCC2)CCCC3(C)C)ncc1Cl [Example 1605, 2-{5-Chloro-2-[5,5-dimethyl-1-(2-pyrrolidin-1-yl-ethyl)-2,3,4,5-tetrahydro-1H-benzo[b]azepin-8-ylamino]-pyrimidin-4-ylamino}-3-fluoro-N-methyl-benzamide]

IC50 [1, 9]: < 100 nM
IC50 [2, 10]: > 10000 nM
Molecule: COc1cc2c(cc1Nc1ncc(Cl)c(Nc3ccc(N(C)C)cc3OC)n1)CCN(CC(=O)N1CCN(C)CC1)CC2 [Example 1540, 2-{7-[5-Chloro-4-(4-dimethylamino-2-methoxy-phenylamino)-pyrimidin-2-ylamino]-8-methoxy-1,2,4,5-tetrahydro-3-benzazepin-3-yl}-1-(4-methyl-piperazin-1-yl)-ethanone]

IC50 [1, 5]: 100 to 1000 nM
IC50 [2, 6]: 1000 to 10000 nM
Molecule: 5-Chloro-N(4)-(2-fluoro-6-methanesulfonyl-phenyl)-(2-fluoro-6-methanesulfonyl-phenyl)2,3,4,5-tetrahydro-1H-3-benzazepin-7-yl]-pyrimidine-2,4-diamine [Example 1262]
